Where “and” joins values, the source holds several entries; their conditions need not be identical. Identical values can stand only once.

Results on eleven molecules are retold here after BindingDB's records for doi:10.1016/j.bioorg.2016.11.008 (Beni-Suef University, 2017).

Experiment [1] deals with T1, Prostaglandin G/H synthase 1 (Ovis aries, UniProt P05979).
T1 sequence (P05979 whole entry): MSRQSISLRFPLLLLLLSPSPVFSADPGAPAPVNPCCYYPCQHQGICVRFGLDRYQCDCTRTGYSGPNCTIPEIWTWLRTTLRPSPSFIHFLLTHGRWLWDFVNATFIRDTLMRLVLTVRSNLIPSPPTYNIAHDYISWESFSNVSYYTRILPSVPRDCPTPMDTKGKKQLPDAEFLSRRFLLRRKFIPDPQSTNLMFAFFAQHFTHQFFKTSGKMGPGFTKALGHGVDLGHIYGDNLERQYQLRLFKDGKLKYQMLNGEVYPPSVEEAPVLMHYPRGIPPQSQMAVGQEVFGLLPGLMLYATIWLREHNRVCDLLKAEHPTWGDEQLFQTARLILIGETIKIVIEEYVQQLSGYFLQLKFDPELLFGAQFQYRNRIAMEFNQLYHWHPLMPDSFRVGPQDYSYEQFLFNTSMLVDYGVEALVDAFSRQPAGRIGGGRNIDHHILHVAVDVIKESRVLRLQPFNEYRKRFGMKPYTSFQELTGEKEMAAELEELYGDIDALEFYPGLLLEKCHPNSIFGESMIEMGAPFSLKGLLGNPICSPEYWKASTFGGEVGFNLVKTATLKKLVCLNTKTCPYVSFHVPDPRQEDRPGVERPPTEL
The experiment in a line: COX-1/COX-2 Inhibition Colorimetric Assay. Here is the method: (§1) The in vitro inhibition of ovine COX-1 and COX-2 was measured using an enzyme immuno assay (EIA) kit (Cayman Chemical, Ann Arbor, MI, USA) according to the manufacturer's instructions and as reported before [Roschek et al., J. Med. Food., 12:615-623].

For experiment [2], the target named is T2, Prostaglandin G/H synthase 2 (Ovis aries, UniProt P79208).
T2 sequence (P79208 whole entry): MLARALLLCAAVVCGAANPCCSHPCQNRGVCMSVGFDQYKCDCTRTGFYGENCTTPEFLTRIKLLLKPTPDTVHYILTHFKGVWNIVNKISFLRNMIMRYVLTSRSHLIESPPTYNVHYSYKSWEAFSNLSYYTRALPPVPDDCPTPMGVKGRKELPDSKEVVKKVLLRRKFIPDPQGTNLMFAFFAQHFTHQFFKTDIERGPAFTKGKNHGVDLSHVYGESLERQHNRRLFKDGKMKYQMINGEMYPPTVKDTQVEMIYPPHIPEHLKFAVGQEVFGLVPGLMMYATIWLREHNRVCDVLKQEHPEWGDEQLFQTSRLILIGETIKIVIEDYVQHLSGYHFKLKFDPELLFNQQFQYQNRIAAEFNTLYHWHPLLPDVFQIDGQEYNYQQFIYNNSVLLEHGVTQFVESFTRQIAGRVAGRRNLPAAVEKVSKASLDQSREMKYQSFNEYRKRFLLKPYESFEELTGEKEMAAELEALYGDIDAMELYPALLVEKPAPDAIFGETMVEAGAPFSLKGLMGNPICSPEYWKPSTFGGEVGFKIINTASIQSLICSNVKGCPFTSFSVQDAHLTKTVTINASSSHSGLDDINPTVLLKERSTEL
The experiment in a line: COX-1/COX-2 Inhibition Colorimetric Assay. On the procedure:
as §1

For orientation: IC50 means the point on the concentration scale where inhibition reaches its midpoint. Low values mean inhibition by little substance, high ones a need for much substance. Regarding `NS(=O)(=O)c1ccc(N2N=C(c3ccc(Cl)cc3)CC2c2ccc(Cl)cc2)cc1` (configuration not stated) [4-[3-(4-Chloro-phenyl)-5-(4-chloro-phenyl)-4,5-dihydro-pyrazol-1-yl]-benzene-sulfonamide (10d)], the IC50 in experiment [1] turned out to be 5.11 µM; in experiment [2] it was 0.9 µM.
With `COc1cc(C2CC(c3ccc(Br)cc3)=NN2c2ccc(S(N)(=O)=O)cc2)cc(OC)c1OC` (configuration not stated) [4-[3-(4-Bromo-phenyl)-5-(3,4,5-trimethoxy-phenyl)-4,5-dihydropyrazol-1-yl]-benzene-sulfonamide (10a)], the values for the 50% inhibitory concentration (IC50) in experiment [1] and in experiment [2] were 7.52 µM and 0.78 µM, respectively.
The corresponding values for `COc1cc(C2CC(c3ccc(Br)cc3)=NN2c2ccc(S(C)(=O)=O)cc2)cc(OC)c1OC` (configuration not stated) [3-(4-Bromo-phenyl)-1-(4-methanesulfonyl-phenyl)-5-(3,4,5-trimethoxy-phenyl)-4,5-dihydro-1H-pyrazole (10g)] are 8.65 µM and 0.98 µM.
For `COc1cc(C2CC(c3ccc(Cl)cc3)=NN2c2ccc(S(N)(=O)=O)cc2)cc(OC)c1OC` (configuration not stated) [4-[3-(4-Chloro-phenyl)-5-(3,4,5-trimethoxy-phenyl)-4,5-dihydropyrazol-1-yl]-benzene-sulfonamide (10b)] the same measures were 3.41 µM and 0.22 µM.
For `NS(=O)(=O)c1ccc(N2N=C(c3ccc(Br)cc3)CC2c2ccc(Cl)cc2)cc1` (configuration not stated) [4-[3-(4-Bromo-phenyl)-5-(4-chloro-phenyl)-4,5-dihydro-pyrazol-1-yl]-benzene-sulfonamide (10c)] the same measures were 6.87 µM and 1.43 µM.
`COc1ccc(C2CC(c3ccc(Br)cc3)=NN2c2ccc(S(C)(=O)=O)cc2)cc1` (configuration not stated) [3-(4-Bromo-phenyl)-1-(4-methanesulfonyl-phenyl)-5-(4-methoxy-phenyl)-4,5-dihydro-1H-pyrazole (10k)]: the IC50 was 4.85 µM in experiment [1] and 0.63 µM in experiment [2].
On to `COc1cc(C2CC(c3ccc(Cl)cc3)=NN2c2ccc(S(C)(=O)=O)cc2)cc(OC)c1OC` (configuration not stated) [3-(4-Chloro-phenyl)-1-(4-methanesulfonyl-phenyl)-5-(3,4,5-trimethoxy-phenyl)-4,5-dihydro-1H-pyrazole (10h)], for which the IC50 in experiment [1] was 3.87 µM and 8.34 µM; in experiment [2], 0.42 µM and 2.98 µM.
As to `COc1ccc(C2CC(c3ccc(Br)cc3)=NN2c2ccc(S(N)(=O)=O)cc2)cc1` (configuration not stated) [UNM-0000306138], the half-maximal inhibitory concentration (IC50) came out at 5.17 µM in experiment [1] and 0.63 µM in experiment [2].
As for `COc1ccc(C2CC(c3ccc(Cl)cc3)=NN2c2ccc(S(N)(=O)=O)cc2)cc1` (configuration not stated), the IC50 in experiment [1] worked out at 6.52 µM; in experiment [2] it was 0.74 µM.
For `COc1ccc(C2CC(c3ccc(Cl)cc3)=NN2c2ccc(S(C)(=O)=O)cc2)cc1` (configuration not stated) [3-(4-Chloro-phenyl)-1-(4-methanesulfonyl-phenyl)-5-(4-methoxy-phenyl)-4,5-dihydro-1H-pyrazole (10l)] the same measures were 10.2 µM and 3.41 µM.
The corresponding values for `CS(=O)(=O)c1ccc(N2N=C(c3ccc(Cl)cc3)CC2c2ccc(Cl)cc2)cc1` (configuration not stated) [3,5-Bis-(4-chloro-phenyl)-1-(4-methanesulfonyl-phenyl)-4,5-dihydro-1H-pyrazole (10j)] are 9.89 µM and 1.52 µM.
